Converted amounts (≈) assume the structure as drawn.
Tested on: P388
Test: Cytotoxicity against mouse P388 cells
Format: functional, cell-based

Row | SMILES | IC50 [µg/mL]
1 | C=C(CC[C@@H](C)[C@H]1CC[C@H]2C3=C[C@@H](OC(C)=O)[C@@]4(O)C[C@@H](OC(C)=O)CC[C@]4(C)[C@@]3(O)[C@H](OC(C)=O)C[C@]12C)C(C)C | 6.5 (≈ 11 µM)
2 | C=C(CC[C@@H](C)[C@H]1CC[C@H]2C3=C[C@@H](OC(C)=O)[C@@]4(O)C[C@@H](OC(C)=O)CC[C@]4(C)[C@H]3CC[C@]12C)C(C)C | 1.46 (≈ 2.84 µM)
3 | C=C(CC[C@@H](C)[C@H]1CC[C@H]2C3=C[C@H](OC(C)=O)[C@@]4(O)C[C@@H](OC(C)=O)CC[C@]4(C)[C@@]3(O)[C@H](OC(C)=O)C[C@]12C)C(C)C | 4.78 (≈ 8.12 µM)

— ChEMBL document CHEMBL1158935, “New Polyhydroxy Sterols, Dysidamides, and a Dideoxyhexose from the Sponge Dysidea herbacea” (J Nat Prod, 1991)
